Test results reported in article PMC11790763, “A Peptide Motif Covering Splice Site B in Neuroligin-1 Binds to Aβ and Acts as a Neprilysin Inhibitor” (Molecular Neurobiology, 2024).
Where a SMILES comes first, the peptide text is derived from it. Bridges are numbered along the chain shown (N, C = ends). Roman numbers before positions name the chains, in order. Where no end group is shown, it is not given here.

Tests used:
[1] = molecular target: T1, Aβ1-42 (Homo sapiens, UniProt P05067); assay: Aβ1-42 aggregation assay (thioflavin T fluorescence); conditions: 75 μM Aβ1-42 + 10 μM peptide, 37 °C, 8 days, 50 mM Tris pH 7.4, ThT 5 μM, triplicates; slopes compared with Aβ alone
T1 construct: Aβ1-42, at a final concentration of 75 μM (pH 7.4); purchased Bachem AG (Bubendorf, Switzerland) or Schafer-N; host or cells: synthetic peptide
Protocol: Aβ1-42 was dissolved in sterile deionized water to a final concentration of 1 mM. Then, the peptide was subjected to a basic shock by adding 2 M NaOH to pH 12 followed by neutralization with 1 M HCl. Aβ1-42, at a final concentration of 75 μM (pH 7.4) either alone or in combination with NL1 (1 μM), neurolide (10 μM), or NLp7 (10 μM), was loaded in triplicates on 96-well plate. Immediately after mixing the samples, thioflavin T (5 μM, ThT; Sigma-Aldrich), dissolved in the aggregation buffer (50 mM Tris, pH 7.4), was added to wells and plate was incubated at 37 °C for 8 days. The formation of beta-amyloid aggregates was monitored first for 210 min and then every 24 h by recording changes in ThT fluorescence at excitation/emission (Ex/Em) = 440/482 nm.

[2] = molecular target: T2, brain-derived NEP (Mus musculus, UniProt Q61391); assay: Neprilysin activity in NEP-enriched brain membrane fraction of WT mice; type: biochemical, mouse (C57Bl/6j); conditions: 40 μg protein, Thiorphan 100 nM
T2 construct: Clear supernatants were used as membrane-extracted fractions; from tissue; host or cells: adult mouse brain without cerebellum, Triton X-100-extracted membrane fraction
T2 sequence (Q61391 1-750): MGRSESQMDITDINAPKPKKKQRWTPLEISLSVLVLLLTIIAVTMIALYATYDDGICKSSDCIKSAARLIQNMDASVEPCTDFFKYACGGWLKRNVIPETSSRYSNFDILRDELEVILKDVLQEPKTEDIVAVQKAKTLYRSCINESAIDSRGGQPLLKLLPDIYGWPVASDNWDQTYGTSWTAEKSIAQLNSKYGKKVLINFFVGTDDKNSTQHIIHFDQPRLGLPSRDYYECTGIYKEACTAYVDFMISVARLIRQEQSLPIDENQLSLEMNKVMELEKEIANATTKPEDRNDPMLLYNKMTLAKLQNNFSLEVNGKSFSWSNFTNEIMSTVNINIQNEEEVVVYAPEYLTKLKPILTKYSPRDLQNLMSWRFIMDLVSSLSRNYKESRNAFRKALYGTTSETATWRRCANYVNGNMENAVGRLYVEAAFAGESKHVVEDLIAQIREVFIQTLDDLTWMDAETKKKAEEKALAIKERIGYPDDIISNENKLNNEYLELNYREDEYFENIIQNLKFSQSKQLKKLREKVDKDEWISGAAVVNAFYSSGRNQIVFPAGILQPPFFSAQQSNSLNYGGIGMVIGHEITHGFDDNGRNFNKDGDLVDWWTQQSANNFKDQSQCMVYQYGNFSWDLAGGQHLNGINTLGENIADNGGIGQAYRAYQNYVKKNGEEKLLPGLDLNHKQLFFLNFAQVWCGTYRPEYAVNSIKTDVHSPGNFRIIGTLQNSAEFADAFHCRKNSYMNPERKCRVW
Protocol: To measure NEP activity in brain tissue, whole brains without cerebellum were dissected from adult mice (C57Bl/6j or 5XFAD) and homogenized with a Teflon-glass homogenizer in five volumes (w/v) of ice-cold lysis buffer containing PBS (pH 7.4), 0.25 M sucrose and protease inhibitor cocktail (Complete™, EDTA-free, Roche Diagnostics, Indianapolis, IN). The homogenates were centrifuged at 9000 × g for 15 min at 4 °C. The supernatants were further centrifuged at 20,000 × g at 4 °C for 20 min. The resulting pellets were solubilized in resuspension buffer containing PBS (pH 7.4) and 1% Triton X-100 for 1 h on ice and again centrifuged at 20,000 × g at 4 °C for 20 min. Clear supernatants were used as membrane-extracted fractions. Protein concentrations of Triton-extracted membrane fractions were determined using the Pierce BCA Protein Assay kit (Thermo Fisher Scientific). The standard assay mixture consisted of membrane fraction containing 40 μg total protein diluted in 40 μl of dilution buffer, 10 μl of testing compound (NL1, neurolide or vehicle), and 50 μl of NEP substrate (5-FAM/QXL; Anaspec) in a total volume of 100 μl. The reaction was initiated by adding substrate to the assay mixture. […] Positive and negative controls were set up according to the manufacturer’s protocol (Anaspec). Fluorescence was measured at Ex/Em = 485/535 nm every 20 min for 2 h. The data were expressed as percentage of relative activity of neprilysin.

[3] = molecular target: T3, Aβ1-40 (Homo sapiens, UniProt P05067); assay: Competitive ELISA, binding to biotinylated Aβ1-40; conditions: Table 1, title prints Aβ1-42, text and method Aβ1-40, IC50 interpreted as KD
T3 construct: biotinylated Aβ1-40, at final concentration 400 nM; purchased Bachem AG (Bubendorf, Switzerland) or Schafer-N; host or cells: synthetic peptide
Protocol: NL1 and NL1-derived peptide binding to Aβ was measured by competitive ELISA using the shorter Aβ1-40 peptide with a slower polymerization constant, optimized for this binding assay. Recombinant NL1 (3.125 nM) was immobilized on a poly-sorb 96-well plate (NUNC, Roskilde, Denmark) using sodium bicarbonate buffer (pH 9.6), and left overnight at 4 °C, followed by washing with PBST buffer (PBS supplemented with 0.1% [vol/vol] Tween-20, pH 7.4). In separate tubes, biotinylated Aβ1-40, at final concentration 400 nM, was premixed with serially diluted NL1 or NL1-derived peptides for 30 min. A reversed version of Aβ (Aβ40-1) was used as the respective negative control (Supplementary Fig. 1). After preincubation, the samples were centrifuged at 20,000 × g for 10 min at 4 °C and 100 μl of the mixtures were transferred in triplicates onto the precoated ELISA plate. Plates were incubated at room temperature for 4 h, followed by washing and incubation with streptavidin-HRP conjugate (1:1000, 1 h; Dako, Glostrup, Denmark). The signal was developed with TMB ONE (KEM-EN-TEC, Denmark), and the reaction was terminated with 0.2 M H2SO4. Absorbance was measured at 450 nm on a Wallac VICTOR2 1420 Multilabel Counter (PerkinElmer, Hvidovre, Denmark). KD values were derived by sigmoidal dose–response (variable slope) fit of NL1 and neurolide dose–response curves after log transformation according to GraphPad Prism (version 6, GraphPad, San Diego, CA, USA). Obtained inhibitory concentration IC50 value was interpreted as KD value.

[4] = molecular target: T4, recombinant neprilysin (NEP) (Homo sapiens, UniProt P08473); assay: Neprilysin activity assay with recombinant enzyme (SensoLyte 520); type: biochemical; conditions: peptide 5 μM, equimolar to neurolide; 5-FAM/QXL substrate, 2 h; four to five independent experiments
T4 construct: purchased Anaspec, Fremont, California, USA (SensoLyte 520 Neprilysin Activity Assay Kit)
Protocol: NEP activity was measured using the SensoLyte 520 Neprilysin Activity Assay Kit *Fluorimetric* (Anaspec, Fremont, California, USA) following the protocol provided by the manufacturer. Briefly, Aβ1-42 was dissolved in anhydrous DMSO to a stock concentration of 5 mM, followed by dilutions in assay buffer (100 μM, 50 μM, and 5 μM). Both NL1 (3 μM, 1 μM, 0.3 μM, 0.1 μM) and neurolide (100, 10, 5, and 1 μM) were dissolved in assay buffer. Randomly selected two additional NL1-derived peptides, NLp4, and NLp7 (5 μM, Table 1), were included in the analysis. The NEP solution (40 μl) was mixed with 10 μl of either NL1 or peptides and supplemented with 50 μl of NEP substrate (5-FAM/QXL), and the final mixture was incubated in black optical-bottom 96-well plate (Nunc, Rochester, New York, USA). In co-stimulation experiments, Aβ1-42, prepared as described above, was added to the solution in final concentrations either 0.5 μM or 5 μM. The fluorescence signal was recorded at Ex/Em = 485/535 nm every 20 min for 2 h. The data are presented as the relative activity of NEP alone.

[5] = molecular target: Recombinant rat neuroligin-1 (NL1), soluble extracellular domain (rat) (UniProt Q62765); assay: SPR; Biacore 2000; about 2000 RU of NL1 immobilised on a CM4 chip by amine coupling; 25 °C; HBS-P (10 mM HEPES pH 7.4, 150 mM NaCl, 0.005% P20) with 3 mM CaCl2; 20 μl/min; 1:1 Langmuir model; apparent KD = kd/ka
[6] = molecular target: Biotinylated amyloid-β peptide 1-40 (Aβ1-40); assay: ELISA; competitive ELISA: NL1 (3.125 nM) coated on the plate; biotinylated Aβ1-40 (400 nM; Aβ40-1 as negative control) premixed 30 min with serially diluted NL1 or NL1-derived peptides; 4 h at room temperature; streptavidin-HRP; IC50 interpreted as KD

T3 sequence (P05067 672-711): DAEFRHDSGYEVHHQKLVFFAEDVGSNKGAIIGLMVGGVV
T4 sequence (P08473 whole entry): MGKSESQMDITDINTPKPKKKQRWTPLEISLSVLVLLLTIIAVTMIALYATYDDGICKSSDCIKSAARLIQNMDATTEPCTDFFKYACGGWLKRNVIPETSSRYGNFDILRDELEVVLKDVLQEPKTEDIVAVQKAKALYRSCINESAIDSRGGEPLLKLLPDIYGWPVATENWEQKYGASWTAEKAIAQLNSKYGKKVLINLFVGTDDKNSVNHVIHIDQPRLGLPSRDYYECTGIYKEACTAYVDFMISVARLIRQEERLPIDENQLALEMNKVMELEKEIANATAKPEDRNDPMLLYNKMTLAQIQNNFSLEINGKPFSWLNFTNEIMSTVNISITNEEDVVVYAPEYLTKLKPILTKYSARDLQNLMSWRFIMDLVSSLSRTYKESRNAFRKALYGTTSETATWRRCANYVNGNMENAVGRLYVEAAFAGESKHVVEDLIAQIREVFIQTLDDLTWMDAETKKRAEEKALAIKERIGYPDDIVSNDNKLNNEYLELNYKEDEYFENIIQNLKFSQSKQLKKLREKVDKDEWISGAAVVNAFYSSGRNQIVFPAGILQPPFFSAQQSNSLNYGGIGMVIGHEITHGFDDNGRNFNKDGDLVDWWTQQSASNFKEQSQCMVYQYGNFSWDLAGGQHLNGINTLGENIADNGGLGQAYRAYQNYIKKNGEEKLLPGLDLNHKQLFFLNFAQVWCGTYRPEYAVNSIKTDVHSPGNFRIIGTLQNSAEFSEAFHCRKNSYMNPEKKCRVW
T1 sequence (P05067 672-713): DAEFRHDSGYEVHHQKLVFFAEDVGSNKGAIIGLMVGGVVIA
Chain of Recombinant rat neurexin-1β (NX1β) (Q63373 47-391): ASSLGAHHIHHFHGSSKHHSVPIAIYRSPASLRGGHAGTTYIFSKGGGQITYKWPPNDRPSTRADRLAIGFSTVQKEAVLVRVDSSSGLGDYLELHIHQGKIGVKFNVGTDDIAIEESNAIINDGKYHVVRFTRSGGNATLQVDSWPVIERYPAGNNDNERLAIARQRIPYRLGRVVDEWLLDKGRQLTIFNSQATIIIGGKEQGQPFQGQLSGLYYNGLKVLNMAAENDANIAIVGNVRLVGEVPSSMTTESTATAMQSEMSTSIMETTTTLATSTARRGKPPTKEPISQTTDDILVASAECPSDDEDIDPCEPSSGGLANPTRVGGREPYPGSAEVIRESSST

CC[C@H](C)[C@H](N)C(=O)N[C@H](C(=O)N[C@H](C(=O)N[C@@H](CC(N)=O)C(=O)N[C@@H](Cc1ccc(O)cc1)C(=O)N[C@@H](CCCNC(=N)N)C(=O)N[C@@H](CC(C)C)C(=O)NCC(=O)NCCCC[C@H](NC(=O)CNC(=O)[C@H](CC(C)C)NC(=O)[C@H](CCCNC(=N)N)NC(=O)[C@H](Cc1ccc(O)cc1)NC(=O)[C@H](CC(N)=O)NC(=O)[C@@H](NC(=O)[C@@H](NC(=O)[C@@H](N)[C@@H](C)CC)[C@@H](C)O)C(C)C)C(=O)NCCCC[C@H](NC(=O)[C@H](CCCCNC(=O)CNC(=O)[C@H](CC(C)C)NC(=O)[C@H](CCCNC(=N)N)NC(=O)[C@H](Cc1ccc(O)cc1)NC(=O)[C@H](CC(N)=O)NC(=O)[C@@H](NC(=O)[C@@H](NC(=O)[C@@H](N)[C@@H](C)CC)[C@@H](C)O)C(C)C)NC(=O)CNC(=O)[C@H](CC(C)C)NC(=O)[C@H](CCCNC(=N)N)NC(=O)[C@H](Cc1ccc(O)cc1)NC(=O)[C@H](CC(N)=O)NC(=O)[C@@H](NC(=O)[C@@H](NC(=O)[C@@H](N)[C@@H](C)CC)[C@@H](C)O)C(C)C)C(N)=O)C(C)C)[C@@H](C)O [NLp2] (I: H-ITVNYRLGKK-NH2 / II: H-ITVNYRLGK / III: H-ITVNYRLG / IV: H-ITVNYRLG; amide I:9-IV:C, I:10-II:C, II:9-III:C; N-terminus and C-terminus assumed)
development of ThT fluorescence (Aβ aggregation) [1]: had no effect

O=C(O)CNC(=O)C(CS)Cc1ccccc1 (stereo not shown) [Thiorphan, reference compound]
activity of brain-derived NEP [2]: completely blocked

AENIVDSDDG [NLp4, NL1-derived peptide …]
KD (binding affinities to Aβ1-42, as in the table title) [3]: No binding | activity of recombinant NEP [4]: had no effect

AHTKPNRFEA [NLp6, NL1-derived peptide …]
KD (binding affinities to Aβ1-42, as in the table title) [3]: No binding

ASDFDFAVSN [NLp5, NL1-derived peptide …]
KD (binding affinities to Aβ1-42, as in the table title) [3]: No binding

ASFQPAKYA [NLp3, NL1-derived peptide …]
KD (binding affinities to Aβ1-42, as in the table title) [3]: No binding

ATADLHSNFGS [NLp8, NL1-derived peptide …]
KD (binding affinities to Aβ1-42, as in the table title) [3]: No binding

Amyloid-β peptide 1-42 (Aβ1-42)
Kd [5]: 72 nM

Recombinant rat neurexin-1β (NX1β) (from UniProt Q63373 47-391) (natural protein)
Kd [5]: 6.64 nM

SGGPKPVMYIHG [NLp1, NL1-derived peptide …]
KD (binding affinities to Aβ1-42, as in the table title) [3]: No binding

SVPVTSAFPTAKQDDA [NLp7, NL1-derived peptide …]
KD (binding affinities to Aβ1-42, as in the table title) [3]: No binding | activity of recombinant NEP [4]: had no effect | development of ThT fluorescence (Aβ aggregation) [1]: had no effect

SEGNRWSNSTKGLFQRA (also: tetramer: four copies coupled to a lysine backbone) [Neurolide, NL1-derived synthetic peptide (tetramer on a lysine backbone)]
Kd [6]: 35.3 nM

ITVNYRLG (also: tetramer: four copies coupled to a lysine backbone) [NLp2, NL1-derived synthetic peptide (tetramer on a lysine backbone)]
Kd [6]: 676 nM
